Measured values from the supplement of paper PMC10307832.

Key:
Test in all cases: relative viability (nuclei count vs DMSO), 5 days (fraction); higher = more cells survive
VE-821 + Crizotinib = compound: CS(=O)(=O)c1ccc(-c2cnc(N)c(C(=O)Nc3ccccc3)n2)cc1 [VE-821] + C[C@@H](Oc1cc(-c2cnn(C3CCNCC3)c2)cnc1N)c1c(Cl)ccc(F)c1Cl [Crizotinib] (partner 1 µM)
Procedure, shortened: (§1)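 For relative viability, nuclei counts in treated wells were divided by those in vehicle wells. Lung cancer cell lines had been pin-tool dosed in 1536-well plates the day after seeding and cultured for 5 days, then fixed and stained in one step (final 0.05% Triton X-100, 1% formaldehyde, 1 ug/ml Hoechst) and imaged at 4×. Doses were one drug alone or a fixed anchor-drug dose plus five library-drug doses (not always all listed) in √10 steps, and values are duplicate-plate medians.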

[1] = compound: N#CC[C@H](C1CCCC1)n1cc(-c2ncnc3[nH]ccc23)cn1 [Ruxolitinib] + CC(=O)c1c(C)c2cnc(Nc3ccc(N4CCNCC4)cn3)nc2n(C2CCCC2)c1=O [Palbociclib] (partner 0.5 µM)
Procedure, shortened: as §1

Ruxolitinib + OSI-027 = compound: N#CC[C@H](C1CCCC1)n1cc(-c2ncnc3[nH]ccc23)cn1 [Ruxolitinib] + COc1cccc2cc(-c3nc([C@H]4CC[C@H](C(=O)O)CC4)n4ncnc(N)c34)[nH]c12 [OSI-027] (partner 0.5 µM)
Procedure, shortened: as §1

Ruxolitinib + Pemetrexed = compound: N#CC[C@H](C1CCCC1)n1cc(-c2ncnc3[nH]ccc23)cn1 [Ruxolitinib] + Nc1nc2[nH]cc(CCc3ccc(C(=O)N[C@@H](CCC(=O)O)C(=O)O)cc3)c2c(=O)[nH]1 [Pemetrexed] (partner 0.2 µM)
Procedure, shortened: as §1

UMC-11
relative viability (VE-821 + Crizotinib; first compound 0.08 µM): 0.85
relative viability (VE-821 + Crizotinib; first compound 0.253 µM): 0.681
relative viability (VE-821 + Crizotinib; first compound 0.8 µM): 0.534
relative viability (VE-821 + Crizotinib; first compound 2.53 µM): 0.626
relative viability (VE-821 + Crizotinib; first compound 8 µM): 0.238
relative viability ([1]; first compound 0.08 µM): 0.345
relative viability ([1]; first compound 0.253 µM): 0.399
relative viability ([1]; first compound 0.8 µM): 0.329
relative viability ([1]; first compound 2.53 µM): 0.366
relative viability ([1]; first compound 8 µM): 0.362
relative viability (Ruxolitinib + OSI-027; first compound 0.08 µM): 0.474
relative viability (Ruxolitinib + OSI-027; first compound 0.253 µM): 0.448
relative viability (Ruxolitinib + OSI-027; first compound 0.8 µM): 0.561
relative viability (Ruxolitinib + OSI-027; first compound 2.53 µM): 0.498
relative viability (Ruxolitinib + OSI-027; first compound 8 µM): 0.574
relative viability (Ruxolitinib + Pemetrexed; first compound 0.08 µM): 0.795
relative viability (Ruxolitinib + Pemetrexed; first compound 0.253 µM): 0.777
relative viability (Ruxolitinib + Pemetrexed; first compound 0.8 µM): 0.757
relative viability (Ruxolitinib + Pemetrexed; first compound 2.53 µM): 0.924
relative viability (Ruxolitinib + Pemetrexed; first compound 8 µM): 0.786
